Reference: patent publication US10010504B2, “Compositions and methods including celecoxib and plumbagin relating to treatment of cancer” (The Penn State Research Foundation, priority 2013, dated 2018)

Tested on: UACC 903 melanoma cells
Assay: Thermal stability in DMSO at 60° C., efficacy by MTS assay
Conditions: DMSO solution

heating time acceptable without decreasing efficacy [min] | Compound | effect of prolonged exposure to 60° C. on compound activity
≤ 20 | Cc1ccc(-c2cc(C(F)(F)F)nn2-c2ccc(S(N)(=O)=O)cc2)cc1 [celecoxib, 4-[5-(4-Methylphenyl)-3-(trifluoromethyl)-1H-pyrazol-1-yl]benzenesulfonamide] | –
– | CC1=CC(=O)c2c(O)cccc2C1=O [plumbagin, 5-hydroxy-2-methyl-1,4-napthoquinone] | did not affect compound activity
